Assay: Pharmacokinetic properties in HT29 tumour-bearing mice (HPLC of plasma and tissues; tolerability of injection)
Type: in vivo, athymic NMRI nu/nu mice
Conditions: lateral tail vein injection, 50 μL
Method: HT 29 human colorectal carcinoma cells are used. Six to eight weeks old adult female athymic NMRI nu/nu mice (Taconic M&B, Denmark) weighting 22-24 g were inoculated subcutaneously in the left hind thigh with 0.1 ml of 8×10^7 HT29 human colorectal carcinoma cells/ml in 5% glucose. Two to three weeks later, as the tumor reached a surface diameter of 7-8 mm, and a thickness of 2-3 mm in height, 50 μL of Temoporfin (0.2 mg/kg) diluted in ethanol or 50 μL pegylated liposomal formulation of mTHPC (0.04 mg/ml) were injected into lateral tail vein. Following the drug injection animals were held under normal animal house lighting conditions (average illumination of 200 Lux, maximum 600 Lux of fluorescent tube light, with no exposure to sunlight or daylight). No photo-reaction was observed during this period. […] The fluorescence wave length was set at 410 nm for excitation and 653 nm for emission. The tissue concentration of mTHPC was calculated from a calibration curve constructed by plotting the peak height values of mTHPC standard solutions versus their concentrations.

Oc1cccc(-c2c3nc(c(-c4cccc(O)c4)c4ccc([nH]4)c(-c4cccc(O)c4)c4nc(c(-c5cccc(O)c5)c5ccc2[nH]5)CC4)C=C3)c1 [Temoporfin]
Adverse effects during or immediately after injection: No adverse effects

Reference: patent publication US8986731B2, “Pegylated liposomal formulations of hydrophobic photosensitizers for photodynamic therapy” (Biolitec Pharma Marketing Ltd, priority 2003, dated 2015)
